Experimental data: patent US10604509B2, “Nrf2 regulators” (GlaxoSmithKline Intellectual Property Development Limited, priority 2015, dated 2020)
Structures can show the parent of a compound that is named as a salt.

Test system: NQO1 specific enzyme activity in BEAS-2B cells
Experiment: BEAS-2B NQO1 MTT assay
Assay type: cell-based
Details: BEAS-2B cells, 48 hours with compound, MTT readout; read-out: EC50 of NQO1 specific activity induction
Source text: NAD(P)H:quinone oxidoreductase 1 (NQO1), also called DT diaphorase, is a homodimeric FAD-containing enzyme that catalyzes obligatory NAD(P)H-dependent two-electron reductions of quinones and protects cells against the toxic and neoplastic effects of free radicals and reactive oxygen species arising from one-electron reductions. The transcription of NQO1 is finely regulated by NRF2, and thus NQO1 activity is a good marker for NRF2 activation. On day one, frozen BEAS-2B cells (ATCC) are thawed in a water bath, counted, and re-suspended at a concentration of 250,000 cells/mL. Fifty microliters of cells are plated in 384 well black clear-bottomed plates. Plates are incubated at 37° C., 5% CO2 overnight. On day two, plates are centrifuged and 50 nL of compound or controls are added to the cells. Plates are then incubated at 37° C., 5% CO2 for 48 hours. On day four, medium is aspirated from the plate and crude cell lysates are made by adding 13 uL of 1× Cell Signaling Technologies lysis buffer with 1 Complete, Mini, EDTA-free Protease Inhibitor Tablet (Roche) for each 10 mL of lysis buffer. After lysis plates are incubated for 20 minutes at room temperature. Two microliters of lysate are removed for use in Cell Titer Glo assay (Promega) and MTT cocktail is prepared (Prochaska et. al. 1998) for measurement of NQO1 activity. Fifty microliters of MTT cocktail is added to each well, plate is centrifuged, and analyzed on an Envision plate reader (Perkin Elmer) using Absorbance 570 nm label for 30 minutes. Product formation is measured kinetically and the EC50 of NQO1 specific activity induction is calculated by plotting the change in absorbance (Delta OD/min) versus the log of compound concentration followed by 3-parameter fitting.

Compound | EC50
3-(1,4-dimethyl-1H-benzo[d][1,2,3]triazol-5-yl)-3-(3-((8-methoxy-4-methyl-4,5-dihydro-1H-benzo[c]azepin-2(3H)-yl)methyl)-4-methylphenyl)propanoic Acid [Example 7] | 1000 to 10000 nM
Cc1ccc(C(CC(=O)O)c2ccc3c(nnn3C)c2C)cc1CN1Cc2cc(C#N)ccc2OC(C)(C)C1 (single isomer, unassigned) [Example 172] | 10 to 100 nM
Cc1ccc(C(CC(=O)O)c2ccc3c(nnn3C)c2C)cc1CN1Cc2ccc(C#N)cc2OC(C)(C)C1 (single isomer, unassigned) [Example 174] | 10 to 100 nM
CCC1CCN(Cc2nccn2Cc2cc(C(CCc3cn(CC)nn3)C(C)C(=O)O)ccc2C)CC1 (single isomer, unassigned) [Example 226, 5-(1-Ethyl-1H-1,2,3-triazol-4-yl)-3-(3-((2-((4-ethylpiperidin-1-yl)methyl)-1H-imidazol-1-yl)methyl)-4-methylphenyl)-2-methylpentanoic acid, Trifluoroacetic Acid Salt] | 10 to 100 nM
CCn1cc(CCC(c2ccc(C)c(CN3Cc4cnccc4OC(C)(C)C3)c2)C(C)C(=O)O)nn1 (single isomer, unassigned) [Example 228, 3-(3-((2,2-Dimethyl-2,3-dihydropyrido[3,4-f][1,4]oxazepin-4(5H)-yl)methyl)-4-methylphenyl)-5-(1-ethyl-1H-1,2,3-triazol-4-yl)-2-methylpentanoic acid] | 100 to 1000 nM
CCCn1cc(CCC(c2ccc(C)c(Cn3ccnc3CN3CCC(CC)CC3)c2)C(C)(C)C(=O)O)nn1 (single isomer, unassigned) [Example 247, 3-(3-((2-((4-Ethylpiperidin-1-yl)methyl)-1H-imidazol-1-yl)methyl)-4-methylphenyl)-2,2-dimethyl-5-(1-propyl-1H-1,2,3-triazol-4-yl)pentanoic Acid] | 1 to 10 nM
CCCn1cc(CCC(c2ccc(C)c(Cn3ccnc3CN3CCC(CC)CC3)c2)C(C)(C)C(=O)O)nn1 (single isomer, unassigned) [Example 248, 3-(3-((2-((4-ethylpiperidin-1-yl)methyl)-1H-imidazol-1-yl)methyl)-4-methylphenyl)-2,2-dimethyl-5-(1-propyl-1H-1,2,3-triazol-4-yl)pentanoic Acid] | 10 to 100 nM
CCC1CCN(Cc2nccn2Cc2cc(C(CCc3cn(CC)nn3)C(C)(C)C(=O)O)ccc2C)CC1 (single isomer, unassigned) [Example 249, 5-(1-ethyl-1H-1,2,3-triazol-4-yl)-3-(3-((2-((4-ethylpiperidin-1-yl)methyl)-1H-imidazol-1-yl)methyl)-4-methylphenyl)-2,2-dimethylpentanoic Acid] | 1 to 10 nM
CCC1CCN(Cc2nccn2Cc2cc(C(CCc3cn(CC)nn3)C(C)(C)C(=O)O)ccc2C)CC1 (single isomer, unassigned) [Example 250, 5-(1-ethyl-1H-1,2,3-triazol-4-yl)-3-(3-((2-((4-ethylpiperidin-1-yl)methyl)-1H-imidazol-1-yl)methyl)-4-methylphenyl)-2,2-dimethylpentanoic acid] | 10 to 100 nM
CC[C@@H]1CN(Cc2cc(C(CCc3cn(CC)nn3)C(C)(C)C(=O)O)ccc2C)Cc2ncccc2O1 (single isomer, unassigned) [Example 251] | 1 to 10 nM
CC[C@@H]1CN(Cc2cc(C(CCc3cn(CC)nn3)C(C)(C)C(=O)O)ccc2C)Cc2ncccc2O1 (single isomer, unassigned) [Example 252] | 10 to 100 nM
CC[C@@H]1CN(Cc2cc(C(CCc3cn(CC)nn3)C(C)C(=O)O)ccc2C)Cc2ccccc2O1 (single isomer, unassigned; isomer 1) [Example 118] | 1000 to 10000 nM
Cc1ccc([C@@H](CC(=O)O)c2ccc3c(nnn3C)c2C)cc1CN1CCCC(n2cccn2)C1 (single isomer, unassigned; isomer 1) [Example 157] | 100 to 1000 nM
CC[C@@H]1CN(Cc2cc(C(CCc3cn(CC)nn3)C(C)C(=O)O)ccc2C)Cc2ccccc2O1 (single isomer, unassigned; isomer 2) [Example 119] | 10 to 100 nM
Cc1ccc([C@@H](CC(=O)O)c2ccc3c(nnn3C)c2C)cc1CN1CCCC(n2cccn2)C1 (single isomer, unassigned; isomer 2) [Example 158] | 1000 to 10000 nM
CC[C@@H]1CN(Cc2cc(C(CCc3cn(CC)nn3)C(C)C(=O)O)ccc2C)Cc2ccccc2O1 (single isomer, unassigned; isomer 3) [Example 120] | 1 to 10 nM
Cc1ccc(C(CC(=O)O)c2ccc3c(nnn3C)c2C)cc1CN1Cc2ncccc2OC(C)(C)C1 (stereo in doubt) [Example 170, (S)-3-(1,4-Dimethyl-1H-benzo[d][1,2,3]triazol-5-yl)-3-(3-((2,2-dimethyl-2,3-dihydropyrido[2,3-f][1,4]oxazepin-4(5H)-yl)methyl)-4-methylphenyl)propanoic acid, 0.5 Formlc acid salt] | 10 to 100 nM

Same assay, conditions: Homo sapiens, BEAS-2B, 48 h, BEAS-2B cells, 48 hours with compound, MTT readout; read-out: EC50 of NQO1 specific activity induction

Compound | EC50
CC[C@@H]1CN(Cc2cc([C@H](CC(=O)O)c3ccc4c(nnn4CC)c3F)ccc2C)Cc2ccccc2O1 (relative stereo) [compound 182, rel-(S)-3-(3-(((R)-2-Ethyl-2,3-dihydrobenzo[f][1,4]oxazepin-4(5H)-yl)methyl)-4-methylphenyl)-3-(1-ethyl-4-fluoro-1H-benzo[d][1,2,3]triazol-5-yl)propanoic acid] | 100 to 1000 nM
Cc1ccc(C(CC(=O)O)c2ccc3c(nnn3C)c2C)cc1CN1Cc2cc(C#N)ccc2OC(C)(C)C1 (single isomer, unassigned) [Example 171] | 10 to 100 nM
Cc1ccc(C(CC(=O)O)c2ccc3c(nnn3C)c2C)cc1CN1Cc2ccc(C#N)cc2OC(C)(C)C1 (single isomer, unassigned) [Example 173] | 10 to 100 nM
CC[C@@H]1CN(Cc2cc(C(CC(=O)O)c3ccc4c(nnn4CC)c3F)ccc2C)Cc2ccccc2O1 (single isomer, unassigned) [Example 181] | 10 to 100 nM
CCn1cc(CCC(c2ccc(C)c(CN3Cc4cnccc4OC(C)(C)C3)c2)C(C)C(=O)O)nn1 (single isomer, unassigned) [Example 227, 3-(3-((2,2-Dimethyl-2,3-dihydropyrido[3,4-f][1,4]oxazepin-4(5H)-yl)methyl)-4-methylphenyl)-5-(1-ethyl-1H-1,2,3-triazol-4-yl)-2-methylpentanoic acid, Trifluoroacetic acid salt] | 100 to 1000 nM
Cc1ccc(C(c2ccc3c(nnn3C)c2C)C(C)(C)C(=O)O)cc1Cc1cnnn1CC1CCCCCC1 (single isomer, unassigned) [Example 241] | < 1 nM
Cc1ccc([C@H](c2ccc3c(nnn3C)c2C)C(C)(C)C(=O)O)cc1Cc1cnnn1CC1CCCCCC1 (single isomer, unassigned) [Example 242] | 10 to 100 nM
Cc1ccc([C@H](CC(=O)O)c2ccc3c(nnn3C)c2C)cc1CN1CCCC(n2cccn2)C1 (single isomer, unassigned) [compound 159] | 1000 to 10000 nM
CCn1nnc2c(C)c([C@@H](c3ccc(C)c(CN4Cc5ccccc5OC(C)(C)C4)c3)C(C)(C)C(=O)O)ccc21 (single isomer, unassigned; enantiomer a) [Example 206] | 1 to 10 nM
CCn1nnc2c(C)c([C@H](c3ccc(C)c(CN4Cc5ccccc5OC(C)(C)C4)c3)C(C)(C)C(=O)O)ccc21 (single isomer, unassigned; enantiomer b) [Example 207] | 10 to 100 nM
CCC1CCN(Cc2nccn2Cc2cc(C(CCc3cn(CC)nn3)C(C)C(=O)O)ccc2C)CC1 (single isomer, unassigned; isomer 1) [Example 225, 5-(1-Ethyl-1H-1,2,3-triazol-4-yl)-3-(3-((2-((4-ethylpiperidin-1-yl)methyl)-1H-imidazol-1-yl)methyl)-4-methylphenyl)-2-methylpentanoic Acid, Trifluoroacetic Acid Salt (Compound 9, Isomer 1,Scheme A)] | 10 to 100 nM
Cc1c(C(CC(=O)O)c2ccc(F)c(CN3Cc4ncccc4OC(C)(C)C3)c2)ccc2c1nnn2C (single isomer, unassigned; isomer 1) [Example 261] | 100 to 1000 nM
Cc1c(C(CC(=O)O)c2ccc(Cl)c(CN3Cc4ncccc4OC(C)(C)C3)c2)ccc2c1nnn2C (single isomer, unassigned; isomer 1) [Example 262] | 10 to 100 nM
Cc1ccc(C(CC(=O)O)c2ccc3c(nnn3C)c2C)cc1CN1CCOc2ccccc2C1 (centres unmarked) [Example 1, 3-(3-((2,3-Dihydrobenzo[f][1,4]oxazepin-4(5H)-yl)methyl)-4-methylphenyl)-3-(1,4-dimethyl-1H-benzo[d][1,2,3]triazol-5-yl)propanoic Acid, Trifluoroacetic Acid Salt] | 1000 to 10000 nM
CCC1CN(Cc2cc(C(CC(=O)O)c3ccc4c(nnn4C)c3C)ccc2C)Cc2ccccc2O1 (centres unmarked) [Example 2, 3-(1,4-Dimethyl-1H-benzo[d][1,2,3]triazol-5-yl)-3-(3-((2-ethyl-2,3-dihydrobenzo[f][1,4]oxazepin-4(5H)-yl)methyl)-4-methylphenyl)propanoic Acid, Trifluoroacetic Acid Salt] | 100 to 1000 nM
